What all share (experiment): MIC, microdilution broth method
(In general: Dilution methods test growth across graded concentrations, often in twofold steps.)

The test system of assay [1] is VRE12204. It is filed as cell-based, Enterococcus faecium. The conditions noted are these: in µg/mL; for MIC: VRE12204.
The subject of assay [2] is M6. It is filed as cell-based. The conditions noted are these: for MIC, M6: ESKAPE panel, Gram-negative.
In assay [3] the test system is EC12923. It is filed as cell-based. The conditions noted are these: for MIC, EC12923: ESKAPE panel, Gram-negative.
The test system of assay [4] is VRE12201. The assay is classed as cell-based, Enterococcus faecalis.
Assay [5] concerns Ab17978. It is filed as cell-based. The following applies: for MIC, Ab17978: ESKAPE panel, Gram-negative.
In assay [6] the test system is VSE775. It is filed as cell-based, Enterococcus faecalis. Further details: MIC, VSE775: unit not given beside the values.
Assay [7] deals with MSSA9144. The assay is classed as cell-based, Staphylococcus aureus.
The test system of assay [8] is KP13368. It is filed as cell-based.
Assay [9] has as its system EMRSA16. It is filed as cell-based, Staphylococcus aureus.
Assay [10] has as its system PA01. It is filed as cell-based, Pseudomonas aeruginosa. The following applies: in µg/mL; for MIC: PA01, Normal (no PMBN).
In assay [11] the test system is EMRSA15. It is filed as cell-based, Staphylococcus aureus.
Setting [12] is: Ab17978, Normal (no PMBN), in µg/mL.
Setting [13] is: ESKAPE panel, Gram-positive, in µg/mL.
Where [14] appears, read: KP13368, Normal (no PMBN), in µg/mL.

In brackets after ≈: the same amount, converted by molar mass. Where a name gives a salt, the structure may show the parent alone. Read-outs that look alike come from different tables or passages of the source.

On to `COCc1cccc(CN2CCN(c3cc4c(cc3F)c(=O)c(C(=O)O)cn4C3CC3)CC2)c1` [ML-83-036], for which the MIC is given as 16 in assay [1]; 8 in [2] (M6, Normal (no PMBN), in µg/mL); 4 in assay [3] (EC12923, in µg/mL); 2-4 in assay [4] (VRE12201, in µg/mL); 2 in assay [5] (setting [12]); 2-4 in assay [6] (VSE775, in µg/mL). In addition, the MIC in [7] (MSSA9144, in µg/mL) is 0.5.
In the case of `C[C@H]1COc2c(N3CCN(c4ccncc4)CC3)c(F)cc3c(=O)c(C(=O)O)cn1c23` [ML-83-019], the MIC in assay [2] (M6, Normal (no PMBN), in µg/mL) is 64; in assay [3] (EC12923, in µg/mL), 32; in [5] (setting [12]), 64; in [7] (MSSA9144, in µg/mL) it was 64.
With `Cc1cc(N2CCN(c3c(F)cc4c(=O)c(C(=O)O)cn5c4c3OC[C@@H]5C)CC2)nc(C(C)C)n1` [ML-83-012, hydrochloride], the “MIC, M6” value in [2] (hydrochloride, in µg/mL) is 16. Moreover, the MIC is 64 µg/mL in [8] (Klebsiella pneumoniae (KP13368), Gram-Negative); 0 to 5 µg/mL in assay [6] (Enterococcus (VRE775), Gram-Positive); 0.25 µg/mL in [7] (Staphylococcus aureus (MSSA9144), Gram-Positive); 2 µg/mL in assay [9] (Staphylococcus aureus (EMRSA16), Gram-Positive (Table 14), hydrochloride). In [3] (hydrochloride, in µg/mL), the “MIC, EC12923” value turned out to be 4. Besides, the “MIC, Ab17978” value in assay [5] (hydrochloride, in µg/mL) was 8. Also, the “MIC, MSSA9144” value in assay [7] (setting [13]) was found to be 0.25. Also, in assay [10] (ESKAPE panel, Gram-negative, hydrochloride), the “MIC, PA01” value came out at 32.
Take `C[C@H]1COc2c(N3CCC(n4cccn4)CC3)c(F)cc3c(=O)c(C(=O)O)cn1c23` [ML-83-041, (S)-10-(4-(1H-pyrazol-1-yl)piperidin-1-yl)-9-fluoro-3-methyl-7-oxo-2,3-dihydro-7H-[1,4]oxazino[2,3,4-ij]quinoline-6-carboxylic acid]: the MIC in assay [1] is listed as 16; in assay [2] (M6, Normal (no PMBN), in µg/mL), 4; in [8] (setting [14]), 32; in assay [3] (EC12923, in µg/mL) it was 2; in assay [4] (VRE12201, in µg/mL) it was 8; in assay [5] (setting [12]), 4-8. The MIC in [6] (VSE775, in µg/mL) was found to be 8; in assay [7] (MSSA9144, in µg/mL), 2; in assay [10] it was 64.
Regarding `COC(=O)c1cnc(N2CCN(c3c(F)cc4c(=O)c(C(=O)O)cn5c4c3OC[C@@H]5C)CC2)nc1` [Compound 82-KSN-L8], the MIC is reported as 4 in assay [1]; 4 in assay [2] (M6, Normal (no PMBN), in µg/mL); 32 in [8] (setting [14]); 4 in assay [3] (EC12923, in µg/mL); 2 in [4] (VRE12201, in µg/mL); 2 in [5] (setting [12]). The MIC is listed as 4 in assay [6] (VSE775, in µg/mL); no more than 0.12 in assay [7] (MSSA9144, in µg/mL); 16 in assay [9] (EMRSA16, in µg/mL); 32 in [10]; 8 in assay [11] (EMRSA15, in µg/mL).
With `C[C@H]1COc2c(N3CCN(c4ccccn4)CC3)c(F)cc3c(=O)c(C(=O)O)cn1c23` [ML-83-0018, (S)-9-fluoro-3-methyl-7-oxo-w-(4-(pyridin-2-yl)piperazin-1-yl)-2,3-dihydro-7H-[1,4]oxazino[2,3,4-ij]quinoline-6-carboxylic acid], the MIC is on record as 2 in assay [1]; 8 in assay [2] (M6, Normal (no PMBN), in µg/mL); 32 in assay [8] (setting [14]); 2-4 in [3] (EC12923, in µg/mL); 0.25 in assay [4] (VRE12201, in µg/mL); 2 in assay [5] (setting [12]). The MIC in assay [6] (VSE775, in µg/mL) is reported as 0.25-0.5; in [7] (MSSA9144, in µg/mL), no more than 0.12; in assay [9] (EMRSA16, in µg/mL), 8; in [10], 64; in assay [11] (EMRSA15, in µg/mL), 4.
As for `Cc1cc(N2CCN(c3c(F)cc4c(=O)c(C(=O)O)cn5c4c3OC[C@@H]5C)CC2)nc(C(C)C)n1` [ML-83-011, (S)-9-fluoro-10-(4-(2-isopropyl-6-methylpyrimidin-4-yl)piperazin-1-yl)-3-methyl-7-oxo-2,3-dihydro-7H-[1,4]oxazino[2,3,4-ij]quinoline-6-carboxylic acid], the “MIC, VRE12204” value in assay [1] (ESKAPE panel, Gram-positive) is on record as 8. Moreover, the MIC in assay [1] is 8; in assay [2] (Klebsiella pneumoniae (M6), Gram-Negative, read-out: MIC), 16 to 64 µg/mL (≈ 33.2 to 133 µM); in [2] (M6, Normal (no PMBN), in µg/mL) it was 16-64; in [8] (setting [14]), 64; in assay [8] (Klebsiella pneumoniae (KP13368), Gram-Negative, read-out: MIC), 64 µg/mL (≈ 133 µM); in assay [3] (EC12923, in µg/mL), 1-8. Moreover, the MIC in assay [3] (Escherichia coli (EC12923), Gram-Negative, read-out: MIC) is 1 to 8 µg/mL (≈ 2.08 to 16.6 µM); in assay [4] (Enterococcus faecalis, Enterococcus (VRE12201), Gram-Positive, read-out: MIC) it was 0.5 to 1 µg/mL (≈ 1.04 to 2.08 µM); in assay [5] (setting [12]) it was 16; in [5] (Acinetobacter baumannii (AB17978), Gram-Negative, read-out: MIC), 16 µg/mL (≈ 33.2 µM); in assay [6] (Enterococcus faecalis, Enterococcus (VRE775), Gram-Positive, read-out: MIC) it was 1 µg/mL (≈ 2.08 µM); in assay [6] (VSE775, in µg/mL) it was 1. Moreover, the MIC in assay [7] (MSSA9144, in µg/mL) is 0.25; in assay [7] (Staphylococcus aureus (MSSA9144), Gram-Positive, read-out: MIC), 0.25 µg/mL (≈ 0.519 µM); in [9] (EMRSA16, in µg/mL), 16; in assay [9] (Staphylococcus aureus (EMRSA16), Gram-Positive (Table 14), read-out: MIC) it was 16 µg/mL (≈ 33.2 µM); in [11] (EMRSA15, in µg/mL) it was 16; in [11] (Staphylococcus aureus, Staphylococcus aureus (EMRSA15), Gram-Positive (Table 14), read-out: MIC) it was 16 µg/mL (≈ 33.2 µM). Also, the “MIC, M6” value in [2] (in µg/mL) is on record as 16-64. The compound also showed an MIC, KP13368 in assay [8] (ESKAPE panel, Gram-negative) of 64 µg/mL (≈ 133 µM). Further, in assay [3] (in µg/mL), the “MIC, EC12923” value was 1-8. For the same compound, the “MIC, VRE12201” value in assay [4] (setting [13]) is 0.5-1. The “MIC, Ab17978” value in assay [5] (in µg/mL) stood at 16. The “MIC, VSE775” value in assay [6] (ESKAPE panel, Gram-positive) worked out at 1. Further, the “MIC, EMRSA16” value in assay [9] (setting [13]) stood at 16. Besides, in [11] (setting [13]), the “MIC, EMRSA15” value was found to be 16.
Take `COCc1ccc(CN2CCN(c3cc4c(cc3F)c(=O)c(C(=O)O)cn4C3CC3)CC2)cc1` [ML-83-050]: the MIC in assay [1] was 16; in assay [2] (M6, Normal (no PMBN), in µg/mL) it was 2; in [3] (EC12923, in µg/mL), 1; in [4] (VRE12201, in µg/mL), 1; in [5] (setting [12]), 1; in assay [6] (VSE775, in µg/mL) it was 1-2. In addition, the MIC in assay [7] (MSSA9144, in µg/mL) is 0.25; in [11] (EMRSA15, in µg/mL), 16-32.
In the case of `CCn1cc(C(=O)O)c(=O)c2cc(F)c(N3CCN(Cc4cccc(COC)c4)CC3)cc21` [ML-83-037, 1-ethyl-6-fluoro-7-(4-(3-(methoxymethyl)benzyl)piperazin-1-yl)-4-oxo-1,4-dihydroquinoline-3-carboxylic acid], the MIC is reported as 16 in assay [1]; 32 in assay [2] (M6, Normal (no PMBN), in µg/mL); 64-128 in assay [8] (setting [14]); 16 in [3] (EC12923, in µg/mL); 8 in assay [4] (VRE12201, in µg/mL); 8 in assay [5] (setting [12]). Moreover, the MIC in assay [6] (VSE775, in µg/mL) is recorded as 16; in assay [7] (MSSA9144, in µg/mL) it was 1; in assay [9] (EMRSA16, in µg/mL) it was 64; in assay [11] (EMRSA15, in µg/mL), 64-128.
With `CCn1cc(C(=O)O)c(=O)c2cc(F)c(N3CCN(Cc4ccc(-c5csnn5)cc4)CC3)cc21` [ML-77-161, 7-(4-(4-(1,2,3-thiadiazol-4-yl)benzyl)piperazin-1-yl)-1-ethyl-6-fluoro-4-oxo-1,4-dihydroquinoline-3-carboxylic acid], the MIC in assay [1] is listed as 16; in assay [2] (M6, Normal (no PMBN), in µg/mL), 4-8; in assay [8] (setting [14]), 64; in assay [4] (VRE12201, in µg/mL), 4; in [5] (setting [12]), 2; in assay [6] (VSE775, in µg/mL) it was 8. Moreover, the MIC in [7] (MSSA9144, in µg/mL) is given as less than 0.12; in assay [9] (EMRSA16, in µg/mL) it was 16; in assay [10] it was 64; in assay [11] (EMRSA15, in µg/mL), 8.
With `CCn1cc(C(=O)O)c(=O)c2cc(F)c(N3CCN(Cc4ccc(COC)cc4)CC3)cc21` [ML-83-052, 1-ethyl-6-fluoro-7-(4-(4-(methoxymethyl)benzyl)piperazin-1-yl)-4-oxo-1,4-dihydroquinoline-3-carboxylic acid], the MIC in assay [1] is 16; in assay [2] (M6, Normal (no PMBN), in µg/mL) it was 8-16; in assay [8] (setting [14]) it was 64; in [3] (EC12923, in µg/mL) it was 4; in [4] (VRE12201, in µg/mL), 8; in assay [5] (setting [12]) it was 4. In addition, the MIC in assay [6] (VSE775, in µg/mL) is 8-16; in assay [7] (MSSA9144, in µg/mL), 0.5-1; in assay [9] (EMRSA16, in µg/mL), 64; in assay [11] (EMRSA15, in µg/mL) it was 64-128.
On to `CCn1cc(C(=O)O)c(=O)c2cc(F)c(N3CCN(Cc4ccc(-n5cccc5)cc4)CC3)cc21` [ML-77-136, 7-(4-(4-(1H-pyrrol-1-yl)benzyl)piperazin-1-yl)-1-ethyl-6-fluoro oxo-1-4-dihydroquinoline-3-carboxylic acid], for which the MIC in assay [1] is listed as 4-8; in assay [2] (M6, Normal (no PMBN), in µg/mL), 8-32; in assay [8] (setting [14]), 64-128; in [4] (VRE12201, in µg/mL), 4-8; in assay [5] (setting [12]), 16-32; in assay [6] (VSE775, in µg/mL), 4-8. For the same compound, the MIC is reported as 0.25-0.5 in assay [7] (MSSA9144, in µg/mL); 8-16 in assay [9] (EMRSA16, in µg/mL); 64-128 in assay [10]; 8 in assay [11] (EMRSA15, in µg/mL).

The record behind these values is patent US11746116B2, “Antibiotic resistance breakers” (KING'S COLLEGE LONDON, priority 2017, dated 2023).
